The record followed here is patent US12473304B2, “Heterocyclic PAD4 inhibitors” (BRISTOL-MYERS SQUIBB COMPANY, priority 2020, dated 2025).

Structures are written as SMILES.

Sequence of human PAD4 (hPAD4) (Q9UM07 whole entry): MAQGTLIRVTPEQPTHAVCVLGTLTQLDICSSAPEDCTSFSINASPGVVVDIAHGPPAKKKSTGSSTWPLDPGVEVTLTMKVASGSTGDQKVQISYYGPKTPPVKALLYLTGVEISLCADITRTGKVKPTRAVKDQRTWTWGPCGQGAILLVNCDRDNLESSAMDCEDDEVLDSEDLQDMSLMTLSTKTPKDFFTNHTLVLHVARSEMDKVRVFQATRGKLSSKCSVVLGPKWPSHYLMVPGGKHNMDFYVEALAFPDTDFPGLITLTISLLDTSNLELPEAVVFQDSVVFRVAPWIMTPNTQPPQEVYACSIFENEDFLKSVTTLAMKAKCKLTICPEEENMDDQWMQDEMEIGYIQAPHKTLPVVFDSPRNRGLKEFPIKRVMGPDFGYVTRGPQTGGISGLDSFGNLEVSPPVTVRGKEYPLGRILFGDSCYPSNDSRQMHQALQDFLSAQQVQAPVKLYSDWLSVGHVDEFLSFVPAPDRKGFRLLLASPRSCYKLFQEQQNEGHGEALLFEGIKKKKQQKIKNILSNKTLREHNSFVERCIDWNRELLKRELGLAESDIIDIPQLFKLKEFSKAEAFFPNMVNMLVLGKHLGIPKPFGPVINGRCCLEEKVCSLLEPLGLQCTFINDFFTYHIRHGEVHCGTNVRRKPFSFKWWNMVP

The assay has as its target human PAD4 (hPAD4) (Homo sapiens (Human), UniProt Q9UM07). The assay is described as follows: RFMS Human PAD4 Functional Assay 1. The format is biochemical. The settings on record: RFMS assay 1; 5 nM hPAD4, 250 μM BAEE substrate, 50 μM calcium, 37° C. The method in brief:
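Citrullination product read by RapidFire triple-quad MRM against a modified-citrulline internal standard, after TCA stop and 30 min phenyl glyoxal step at 37 °C. Reaction: 250 μM BAEE, 5 nM human PAD4, 90 min at 37 °C, pH 7.5 HEPES buffer with 50 μM calcium and 5 μM TPEN, following 30 min compound–enzyme preincubation (max 50 μM).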
One may read the IC50 as the concentration that inhibits the measured activity by half. Regarding `COc1cc(C(=O)N2CC3CCC2[C@H]3N)cn2nc(-c3cc4ccnc(OC[C@H]5CCC(=O)N5)c4n3CC3CC3)c(C)c12` (stereo in doubt) [Example 607, (5R)-5-(((2-(6-((7S)-7-Amino-2-azabicyclo[2.2.1]heptane-2-carbonyl)-4-methoxy-3-methylpyrazolo[1,5-a]pyridin-2-yl)-1-(cyclopropylmethyl)-1H-pyrrolo[2,3-c]pyridin-7-yl)oxy)methyl)pyrrolidin-2-one], the IC50 amounted to 50 nM.

For the compound `COc1cc(C(=O)N2CC3CCC2[C@@H]3N)cn2nc(-c3cc4cccnc4n3CC3CC3)c(C)c12` (stereo partly drawn) [Example 1, ((7R)-7-Amino-2-azabicyclo[2.2.1]heptan-2-yl)(2-(1-(cyclopropylmethyl)-1H-pyrrolo[2,3-b]pyridin-2-yl)-4-methoxy-3-methylpyrazolo[1,5-a]pyridin-6-yl)methanone], the half-inhibitory concentration (IC50) amounted to 280 nM.

`COc1cc(C(=O)N2CC3CCC2[C@@H]3N)cn2nc(-c3cc4ccc(Cl)nc4n3CC3CC3)c(C)c12` (stereo partly drawn) [Example 2, ((7R)-7-Amino-2-azabicyclo[2.2.1]heptan-2-yl)(2-(6-chloro-1-(cyclopropylmethyl)-1H-pyrrolo[2,3-b]pyridin-2-yl)-4-methoxy-3-methylpyrazolo[1,5-a]pyridin-6-yl)methanone]: the half-maximal inhibitory concentration (IC50) was determined as 380 nM.

On to `COc1cc(C(=O)N2CC3CCC2[C@@H]3N)cn2nc(-c3cc4ccc(-c5ccc6c(c5)C(=O)NC6)nc4n3CC3CC3)c(C)c12` (stereo partly drawn) [Example 3, 6-(2-(6-((7R)-7-Amino-2-azabicyclo[2.2.1]heptane-2-carbonyl)-4-methoxy-3-methylpyrazolo[1,5-a]pyridin-2-yl)-1-(cyclopropylmethyl)-1H-pyrrolo[2,3-b]pyridin-6-yl)isoindolin-1-one], for which the concentration for half-maximal inhibition (IC50) was 60 nM.

Consider `COc1cc(C(=O)N2CC3CCC2[C@@H]3N)cn2nc(-c3cc4ccc(C)nc4n3CC3CC3)c(C)c12` (stereo partly drawn) [Example 4, ((7R)-7-Amino-2-azabicyclo[2.2.1]heptan-2-yl)(2-(1-(cyclopropylmethyl)-6-methyl-1H-pyrrolo[2,3-b]pyridin-2-yl)-4-methoxy-3-methylpyrazolo[1,5-a]pyridin-6-yl)methanone], for which the IC50 was 68 nM.

Consider `COc1cc(C(=O)N2CC3CCC2[C@@H]3N)cn2nc(-c3cc4ccc(-c5ccc6c(c5)CNC6=O)nc4n3CC3CC3)c(C)c12` (stereo partly drawn) [Example 5, 5-(2-(6-((7R)-7-Amino-2-azabicyclo[2.2.1]-heptane-2-carbonyl)-4-methoxy-3-methylpyrazolo[1,5-a]pyridin-2-yl)-1-(cyclopropylmethyl)-1H-pyrrolo[2,3-b]pyridin-6-yl)isoindolin-1-one], for which the IC50 was 27 nM.

Regarding `COc1cc(C(=O)N2CC3CCC2[C@@H]3N)cn2nc(-c3cc4ccc(C5CC5)nc4n3CC3CC3)c(C)c12` (stereo partly drawn) [Example 6, ((7R)-7-Amino-2-azabicyclo[2.2.1]heptan-2-yl)(2-(6-cyclopropyl-1-(cyclopropylmethyl)-1H-pyrrolo[2,3-b]pyridin-2-yl)-4-methoxy-3-methylpyrazolo[1,5-a]pyridin-6-yl)methanone], the IC50 is 32 nM.

Regarding `COc1cc(C(=O)N2CC3CCC2[C@@H]3N)cn2nc(-c3cc4ccc(-c5cnn(C(C)C)c5)nc4n3CC3CC3)c(C)c12` (stereo partly drawn) [Example 7, ((7R)-7-Amino-2-azabicyclo[2.2.1]heptan-2-yl)(2-(1-(cyclopropylmethyl)-6-(1-isopropyl-1H-pyrazol-4-yl)-1H-pyrrolo[2,3-b]pyridin-2-yl)-4-methoxy-3-methylpyrazolo[1,5-a]pyridin-6-yl)methanone], the half-inhibitory concentration (IC50) came out at 412 nM.

In the case of `COc1cc(C(=O)N2CC3CCC2[C@@H]3N)cn2nc(-c3cc4ccc(-c5ccn6c(C)nnc6c5)nc4n3CC3CC3)c(C)c12` (stereo partly drawn) [Example 8, ((7R)-7-Amino-2-azabicyclo[2.2.1]heptan-2-yl)(2-(1-(cyclopropylmethyl)-6-(3-methyl-[1,2,4]triazolo[4,3-a]pyridin-7-yl)-1H-pyrrolo[2,3-b]pyridin-2-yl)-4-methoxy-3-methylpyrazolo[1,5-a]pyridin-6-yl)methanone], the IC50 was 37 nM.

In the case of `COc1cc(C(=O)N2CC3CCC2[C@@H]3N)cn2nc(-c3cc4ccc(-c5cccc(O)c5F)nc4n3CC3CC3)c(C)c12` (stereo partly drawn) [Example 9, ((7R)-7-Amino-2-azabicyclo[2.2.1]heptan-2-yl)(2-(1-(cyclopropylmethyl)-6-(2-fluoro-3-hydroxyphenyl)-1H-pyrrolo[2,3-b]pyridin-2-yl)-4-methoxy-3-methylpyrazolo[1,5-a]pyridin-6-yl)methanone], the IC50 stood at 120 nM.

For the compound `COc1cc(C(=O)N2CC3CCC2[C@@H]3N)cn2nc(-c3cc4ccc(-c5ccc(O)c(F)c5)nc4n3CC3CC3)c(C)c12` (stereo partly drawn) [Example 10, ((7R)-7-Amino-2-azabicyclo[2.2.1]heptan-2-yl)(2-(1-(cyclopropylmethyl)-6-(3-fluoro-4-hydroxyphenyl)-1H-pyrrolo[2,3-b]pyridin-2-yl)-4-methoxy-3-methylpyrazolo[1,5-a]pyridin-6-yl)methanone], the IC50 is 159 nM.

As for `COc1cc(C(=O)N2CC3CCC2[C@@H]3N)cn2nc(-c3cc4ccc(-c5ccc(OC(F)F)cc5)nc4n3CC3CC3)c(C)c12` (stereo partly drawn) [Example 11, ((7R)-7-Amino-2-azabicyclo[2.2.1]heptan-2-yl)(2-(1-(cyclopropylmethyl)-6-(4-(difluoromethoxy)phenyl)-1H-pyrrolo[2,3-b]pyridin-2-yl)-4-methoxy-3-methylpyrazolo[1,5-a]pyridin-6-yl)methanone], the IC50 came to 1370 nM.

Turning to `COc1cc(C(=O)N2CC3CCC2[C@@H]3N)cn2nc(-c3cc4ccc(-c5ccc(OC(F)F)c(F)c5)nc4n3CC3CC3)c(C)c12` (stereo partly drawn) [Example 12, ((7R)-7-Amino-2-azabicyclo[2.2.1]heptan-2-yl)(2-(1-(cyclopropylmethyl)-6-(4-(difluoromethoxy)-3-fluorophenyl)-1H-pyrrolo[2,3-b]pyridin-2-yl)-4-methoxy-3-methylpyrazolo[1,5-a]pyridin-6-yl)methanone], the half-maximal inhibitory concentration (IC50) was determined as 2320 nM.

With `COc1cc(C(=O)N2CC3CCC2[C@@H]3N)cn2nc(-c3cc4ccc(N5CC(OC)C5)nc4n3CC3CC3)c(C)c12` (stereo partly drawn) [Example 13, ((7R)-7-Amino-2-azabicyclo[2.2.1]heptan-2-yl)(2-(1-(cyclopropylmethyl)-6-(3-methoxyazetidin-1-yl)-1H-pyrrolo[2,3-b]pyridin-2-yl)-4-methoxy-3-methylpyrazolo[1,5-a]pyridin-6-yl)methanone], the concentration for half-maximal inhibition (IC50) stood at 163 nM.

In the case of `COc1cc(C(=O)N2C[C@H](N)C[C@@H](F)C2)cn2nc(-c3cc4cccnc4n3CC3CC3)c(C)c12` [Example 14, ((3R,5R)-3-Amino-5-fluoropiperidin-1-yl)(2-(1-(cyclopropylmethyl)-1H-pyrrolo[2,3-b]pyridin-2-yl)-4-methoxy-3-methylpyrazolo[1,5-a]pyridin-6-yl)methanone], the 50% inhibitory concentration (IC50) was 906 nM.

For the compound `COc1cc(C(=O)N2C[C@H](N)C[C@@H](F)C2)cn2nc(-c3cc4ccc(-c5ccc6c(c5)C(=O)NC6)nc4n3CC3CC3)c(C)c12` [Example 16, 6-(2-(6-((3R,5R)-3-Amino-5-fluoropiperidine-1-carbonyl)-4-methoxy-3-methylpyrazolo[1,5-a]pyridin-2-yl)-1-(cyclopropylmethyl)-1H-pyrrolo[2,3-b]pyridin-6-yl)isoindolin-1-one], the IC50 is 407 nM.

As to `COc1cc(C(=O)N2C[C@H](N)C[C@@H](F)C2)cn2nc(-c3cc4ccc(C)nc4n3CC3CC3)c(C)c12` [Example 17, ((3R,5R)-3-Amino-5-fluoropiperidin-1-yl)(2-(1-(cyclopropylmethyl)-6-methyl-1H-pyrrolo[2,3-b]pyridin-2-yl)-4-methoxy-3-methylpyrazolo[1,5-a]pyridin-6-yl)-methanone], the half-inhibitory concentration (IC50) was 75 nM.

Turning to `COc1cc(C(=O)N2C[C@H](N)C[C@@H](F)C2)cn2nc(-c3cc4ccc(C5CC5)nc4n3CC3CC3)c(C)c12` [Example 19, ((3R,5R)-3-Amino-5-fluoropiperidin-1-yl)(2-(6-cyclopropyl-1-(cyclopropylmethyl)-1H-pyrrolo[2,3-b]pyridin-2-yl)-4-methoxy-3-methylpyrazolo[1,5-a]pyridin-6-yl)methanone], the IC50 was found to be 168 nM.

With `COc1cc(C(=O)N2C[C@H](N)C[C@@H](F)C2)cn2nc(-c3cc4ccc(-c5ccc6c(c5)CNC6=O)nc4n3CC3CC3)c(C)c12` [Example 20, 5-(2-(6-((3R,5R)-3-Amino-5-fluoropiperidine-1-carbonyl)-4-methoxy-3-methylpyrazolo[l,5-a]pyridin-2-yl)-1-(cyclopropylmethyl)-1H-pyrrolo[2,3-b]pyridin-6-yl)isoindolin-1-one], the IC50 is 116 nM.

As to `COc1cc(C(=O)N2C[C@H](N)C[C@@H](F)C2)cn2nc(-c3cc4ccc(-c5ccn6c(C)nnc6c5)nc4n3CC3CC3)c(C)c12` [Example 21, ((3R,5R)-3-Amino-5-fluoropiperidin-1-yl)(2-(1-(cyclopropylmethyl)-6-(3-methyl-[1,2,4]triazolo[4,3-a]pyridin-7-yl)-1H-pyrrolo[2,3-b]pyridin-2-yl)-4-methoxy-3-methylpyrazolo[1,5-a]pyridin-6-yl)methanone], the half-inhibitory concentration (IC50) was determined as 91 nM.

Turning to `COc1cc(C(=O)N2CC3CCC2[C@@H]3N)cn2nc(-c3cc4ccccc4n3CC3CC3)c(C)c12` (stereo partly drawn) [Example 22, ((7R)-7-Amino-2-azabicyclo[2.2.1]heptan-2-yl)(2-(1-(cyclopropylmethyl)-1H-indol-2-yl)-4-methoxy-3-methylpyrazolo[1,5-a]pyridin-6-yl)methanone], the IC50 turned out to be 2150 nM.

For `COc1cc(C(=O)N2CC3CCC2[C@@H]3N)cn2nc(-c3cc4ccc(-c5ccc6c(c5)C(=O)NC6)cc4n3CC3CC3)c(C)c12` (stereo partly drawn) [Example 23, 6-(2-(6-((7R)-7-Amino-2-azabicyclo[2.2.1]heptane-2-carbonyl)-4-methoxy-3-methylpyrazolo[1,5-a]pyridin-2-yl)-1-(cyclopropylmethyl)-1H-indol-6-yl)isoindolin-1-one], the IC50 was 108 nM.
